From patent US11311522B1 (Cavion, Inc., priority 2018, dated 2022)
Read-outs that look alike come from different tables or passages of the source.

Assays:
[1] = molecular target: T1, breast cancer resistance protein (BCRP) (Homo sapiens, UniProt Q9UNQ0); assay: BCRP transport; type: in vitro ADME
T1 sequence (Q9UNQ0 1-655): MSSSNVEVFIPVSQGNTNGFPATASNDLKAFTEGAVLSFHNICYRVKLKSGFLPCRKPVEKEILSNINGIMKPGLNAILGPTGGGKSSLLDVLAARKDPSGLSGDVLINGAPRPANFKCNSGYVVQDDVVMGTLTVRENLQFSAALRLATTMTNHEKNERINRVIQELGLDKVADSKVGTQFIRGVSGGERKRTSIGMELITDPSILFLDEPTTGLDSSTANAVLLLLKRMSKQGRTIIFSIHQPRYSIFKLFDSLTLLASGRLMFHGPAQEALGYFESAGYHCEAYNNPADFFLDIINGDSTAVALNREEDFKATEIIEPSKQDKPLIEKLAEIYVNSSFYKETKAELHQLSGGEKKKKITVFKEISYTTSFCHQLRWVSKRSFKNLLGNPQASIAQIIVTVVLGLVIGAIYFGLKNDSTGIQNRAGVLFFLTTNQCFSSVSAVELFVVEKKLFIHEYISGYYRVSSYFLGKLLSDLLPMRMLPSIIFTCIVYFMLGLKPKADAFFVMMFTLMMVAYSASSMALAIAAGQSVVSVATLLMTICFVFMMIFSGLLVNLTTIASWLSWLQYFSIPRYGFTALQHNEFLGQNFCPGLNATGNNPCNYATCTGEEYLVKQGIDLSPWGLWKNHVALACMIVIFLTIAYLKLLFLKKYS
Text: (§1) Glucuronide conjugates of the oxygenated metabolites are detected in human, monkey, and dog hepatocyte preparations. […] However, the abundance of CYP3A5, CYP2C19, and CYP2D6 in human liver microsomes is low (2%-5%) relative to the primary contributors, CYP3A4 (˜30%) and CYP2C9 (˜20%). […] Information on reproductive and developmental toxicology was obtained in a 28-day pivotal female fertility study in rats and in preliminary embryo-fetal development studies in rats and rabbits.

[2] = Phase 1 multiple-dose pharmacokinetics (PN002/Part II); details: for half-life / AUC / Cmax: human, plasma
clinical = details: human, plasma, oral, 8 mg
in vivo [3] = details: Beagle, dog, po, 300 mg/kg
in vivo [4] = details: female, rat, po, 10 mg/kg/day
[5] = Brain penetration in male rats; type: in vivo; details: rat, 25 mg/kg
P-glycoprotein = P-glycoprotein bidirectional transport; type: in vitro ADME, human, monkey, and rat
Text: as §1

CYP2B6 = CYP2B6 mRNA induction in human hepatocytes; type: in vitro ADME
Text: as §1

[6] = T-CALM: plasma concentrations by 5-in-1 LC/MS/MS; type: in vivo, human; details: for Plasma concentration, mean: trough; for concentration at 4 h: human, plasma, oral, 4 hours post-dose
Description: Additionally, at Visit 4, a post-dose sample will be collected as close to 4 hours post-dose as possible, but within the window of 4-6 hours post-dose (i.e., a total of two PK samples are collected at Visit 4.)
Assay performances were satisfactory and met acceptance criteria for system performance suitability, quantitation range, calibration linearity, assay accuracy and precision, and assay recovery.

CYP2C9 = molecular target: T2, CYP2C9 (Homo sapiens, UniProt P11712); assay: In vitro metabolism (liver microsomes, hepatocytes, recombinant CYPs, anti-CYP antibodies); type: in vitro ADME; details: recombinant CYP2C9
T2 construct: host or cells: pooled liver microsomes, hepatocytes and recombinant CYP enzymes
T2 sequence (P11712 whole entry): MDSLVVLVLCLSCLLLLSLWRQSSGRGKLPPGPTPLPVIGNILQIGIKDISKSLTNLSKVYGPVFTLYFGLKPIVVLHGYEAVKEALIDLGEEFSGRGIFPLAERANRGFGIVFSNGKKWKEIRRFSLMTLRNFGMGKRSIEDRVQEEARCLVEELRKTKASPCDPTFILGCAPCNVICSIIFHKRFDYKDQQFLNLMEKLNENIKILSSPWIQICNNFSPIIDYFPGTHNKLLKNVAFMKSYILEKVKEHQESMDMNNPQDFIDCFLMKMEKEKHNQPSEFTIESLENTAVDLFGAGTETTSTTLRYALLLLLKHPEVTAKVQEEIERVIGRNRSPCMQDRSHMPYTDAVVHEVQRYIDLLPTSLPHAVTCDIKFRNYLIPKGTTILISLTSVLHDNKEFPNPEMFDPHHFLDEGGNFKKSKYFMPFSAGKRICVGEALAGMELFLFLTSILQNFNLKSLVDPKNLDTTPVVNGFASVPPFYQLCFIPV
Text: as §1

Cav3.3 = molecular target: T3, Cav3.3 (Homo sapiens, UniProt Q9P0X4); assay: Cav3.3 FLIPR calcium influx assay (HEK 293 cells); type: cell-based; details: for IC50: Cav3.3 FLIPR assay; for State dependence: hyperpolarized versus depolarized FLIPR potency
T3 construct: expressed in transfected cells; host or cells: HEK 293
T3 sequence (Q9P0X4 whole entry, species assumed): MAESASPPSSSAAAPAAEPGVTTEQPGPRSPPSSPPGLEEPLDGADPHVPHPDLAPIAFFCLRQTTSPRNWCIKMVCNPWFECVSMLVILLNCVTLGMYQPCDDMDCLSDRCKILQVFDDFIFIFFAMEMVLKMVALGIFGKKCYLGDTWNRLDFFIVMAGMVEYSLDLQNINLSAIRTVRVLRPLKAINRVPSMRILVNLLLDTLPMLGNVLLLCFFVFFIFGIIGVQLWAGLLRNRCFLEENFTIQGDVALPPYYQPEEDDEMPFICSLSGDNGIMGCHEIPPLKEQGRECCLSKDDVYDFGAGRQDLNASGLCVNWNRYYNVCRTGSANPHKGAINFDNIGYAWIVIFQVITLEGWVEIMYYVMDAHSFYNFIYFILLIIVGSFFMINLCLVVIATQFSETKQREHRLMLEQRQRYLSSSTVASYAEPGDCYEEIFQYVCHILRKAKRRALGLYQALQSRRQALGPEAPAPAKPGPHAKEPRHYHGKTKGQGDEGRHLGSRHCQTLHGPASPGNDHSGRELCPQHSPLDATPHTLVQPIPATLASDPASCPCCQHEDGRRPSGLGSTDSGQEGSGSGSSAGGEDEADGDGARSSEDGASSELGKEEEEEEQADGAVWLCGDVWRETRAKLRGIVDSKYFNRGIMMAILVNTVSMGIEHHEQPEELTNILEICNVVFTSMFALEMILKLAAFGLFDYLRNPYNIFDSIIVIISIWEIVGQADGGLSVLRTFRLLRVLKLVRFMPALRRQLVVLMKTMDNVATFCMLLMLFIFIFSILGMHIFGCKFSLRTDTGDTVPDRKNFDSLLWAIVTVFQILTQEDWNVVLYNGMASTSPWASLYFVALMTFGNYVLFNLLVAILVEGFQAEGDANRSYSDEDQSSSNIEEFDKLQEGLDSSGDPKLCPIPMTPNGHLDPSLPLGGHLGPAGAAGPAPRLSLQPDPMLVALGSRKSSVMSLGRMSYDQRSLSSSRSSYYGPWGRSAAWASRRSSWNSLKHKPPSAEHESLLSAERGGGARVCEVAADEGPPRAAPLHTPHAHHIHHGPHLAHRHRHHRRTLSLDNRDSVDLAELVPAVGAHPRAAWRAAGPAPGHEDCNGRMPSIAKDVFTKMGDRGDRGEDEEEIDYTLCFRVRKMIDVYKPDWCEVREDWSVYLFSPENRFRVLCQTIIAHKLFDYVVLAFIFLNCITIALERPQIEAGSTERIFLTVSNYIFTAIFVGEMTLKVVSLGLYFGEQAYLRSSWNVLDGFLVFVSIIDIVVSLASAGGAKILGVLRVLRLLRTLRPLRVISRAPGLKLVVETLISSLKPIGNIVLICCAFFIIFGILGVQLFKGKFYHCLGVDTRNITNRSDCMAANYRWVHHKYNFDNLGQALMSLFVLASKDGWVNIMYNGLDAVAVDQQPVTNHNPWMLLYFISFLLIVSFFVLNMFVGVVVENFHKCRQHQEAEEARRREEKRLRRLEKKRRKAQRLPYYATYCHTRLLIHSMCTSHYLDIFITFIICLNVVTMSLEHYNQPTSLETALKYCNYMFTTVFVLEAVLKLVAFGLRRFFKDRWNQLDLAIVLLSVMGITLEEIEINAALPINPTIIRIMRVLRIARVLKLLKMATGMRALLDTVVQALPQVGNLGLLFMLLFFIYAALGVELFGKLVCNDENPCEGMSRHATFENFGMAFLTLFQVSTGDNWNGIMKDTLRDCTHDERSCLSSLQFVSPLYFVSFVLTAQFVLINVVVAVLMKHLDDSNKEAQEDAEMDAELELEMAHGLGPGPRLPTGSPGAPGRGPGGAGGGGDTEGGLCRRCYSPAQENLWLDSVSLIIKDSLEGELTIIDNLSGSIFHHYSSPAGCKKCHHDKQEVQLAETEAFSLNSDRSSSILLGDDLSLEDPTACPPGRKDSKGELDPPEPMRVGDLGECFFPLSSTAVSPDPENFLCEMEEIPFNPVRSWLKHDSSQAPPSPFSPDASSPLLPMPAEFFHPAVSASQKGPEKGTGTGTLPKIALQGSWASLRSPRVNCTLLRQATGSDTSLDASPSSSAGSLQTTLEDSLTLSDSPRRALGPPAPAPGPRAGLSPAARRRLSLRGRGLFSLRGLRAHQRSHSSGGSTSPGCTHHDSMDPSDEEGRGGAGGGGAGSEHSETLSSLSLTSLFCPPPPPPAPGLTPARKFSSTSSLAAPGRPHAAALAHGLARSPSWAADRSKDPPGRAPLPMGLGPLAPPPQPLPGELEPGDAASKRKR

[7] = In vitro plasma protein binding, rat; type: in vitro ADME
Text: CX-8998 distributes readily to the brain in rats and to brain and cerebral spinal fluid (CSF) in dogs.

[8] = Single-dose toxicokinetic study in dogs; type: in vivo; details: dog, plasma, po, 800 mg/kg
Pharmacokinetics in rats = type: in vivo, rat; details: for Ratio of AUC24 (metabolite/CX-8998): Rat, single oral dose 10 mg/kg of CX-8998; for AUC: rat, plasma, po, 10 mg/kg, read-out: AUC24
Description: The validity and reproducibility of the assays were determined, and the precision and accuracy for calibration standards and quality control samples were examined. […] The analytes were stable in plasma under the storage and assay conditions. […] Assay performances were satisfactory and met acceptance criteria for system performance suitability, quantitation range, calibration linearity, assay accuracy and precision, and assay recovery.

[9] = 90-day oral toxicology in Beagle dogs; details: Beagle, dog, in vivo, po
[10] = Off-target panel of enzyme and receptor binding sites, ion channels, transporters; details: 10 μM, 87 targets
[11] = M01, Day 7, CX-8998 2 mg once daily
[12] = M01, Day 7, CX-8998 18 mg once daily
[13] = brain and plasma, oral, read-out: Brain-to-plasma ratio
[14] = depolarized, read-out: Depolarized FLIPR potency
[15] = hyperpolarized, read-out: Hyperpolarized FLIPR potency
[16] = rat plasma, read-out: In vitro plasma protein binding (converted)

C=C(C)c1ccc(CC(=O)N[C@H](C)c2ccc(OCC(F)(F)F)cn2)cc1 [M01]
Inhibition of BCRP transport ([1]; 30 μM): 57%
AUC Ratio, metabolite to parent [2, 11]: 1.12
Cmax Ratio, metabolite to parent [2, 11]: 0.36
Cmax Ratio, metabolite to parent ([2]; M01, Day 7, CX-8998 4 mg once daily): 0.36
AUC Ratio, metabolite to parent ([2]; M01, Day 7, CX-8998 12 mg once daily): 1.15
AUC Ratio, metabolite to parent [2, 12]: 1.34
Cmax Ratio, metabolite to parent [2, 12]: 0.57
Relative potency (CX-8998 = 1.00) ([2]; based on potency, free fraction, maximum Cmax ratios): 0.27
half-life ([2]; 2 mg): 1550 min
AUC ([2]; 2 mg, AUC24, M01, Day 7, CX-8998 2 mg once daily): 1.52 µM·h
Cmax ([2]; 2 mg, M01, Day 7, CX-8998 2 mg once daily): 76 nM
AUC ([2]; 4 mg, AUC24, M01, Day 7, CX-8998 4 mg once daily): 2.83 µM·h
Cmax ([2]; 4 mg, M01, Day 7, CX-8998 4 mg once daily): 136 nM
half-life ([2]; 12 mg): 1360 min
half-life ([2]; 18 mg): 1140 min
AUC ([2]; 18 mg, AUC24, M01, Day 7, CX-8998 18 mg once daily): 18.3 µM·h
Cmax ([2]; 18 mg, M01, Day 7, CX-8998 18 mg once daily): 865 nM
half-life ([2]; male, oral): 1140 to 1550 min
AUC(0-t) (clinical): 6.88 µM·h
Cmax (clinical): 124 nM
Tmax (clinical): 29 h
Kp at 24 h (in vivo [3]; female, CSF): 0.112
concentration at 24 h (in vivo [3]; female, CSF): 112 nM
Kp at 24 h (in vivo [3]; female, brain (frontal cortex)): 0.696
concentration at 24 h (in vivo [3]; female, brain (frontal cortex)): 696 nM
Kp at 24 h (in vivo [3]; female, brain (thalamus)): 0.772
concentration at 24 h (in vivo [3]; female, brain (thalamus)): 772 nM
Kp at 24 h (in vivo [3]; male, CSF): 0.149
concentration at 24 h (in vivo [3]; male, CSF): 149 nM
Kp at 24 h (in vivo [3]; male, brain (frontal cortex)): 0.19
concentration at 24 h (in vivo [3]; male, brain (frontal cortex)): 190 nM
Kp at 24 h (in vivo [3]; male, brain (thalamus)): 0.208
concentration at 24 h (in vivo [3]; male, brain (thalamus)): 208 nM
AUC (in vivo [4]): 8.11 µM·h
Cmax (in vivo [4]): 2.66 µM
Kp at 2 h [5, 13]: 0.27
Kp at 2 h ([5]; brain, po, read-out: Brain: Plasma Ratio): 0.27
P-glycoprotein substrate or inhibitor activity (P-glycoprotein): did not demonstrate any activity as a substrate or inhibitor
CYP2B6 induction (CYP2B6): mild to moderate inducers
Plasma concentration, mean ([6]; Visit 2 (Day 8), 4 mg BID): 398 nM
Plasma concentration, mean ([6]; Visit 3 (Day 15), 8 mg BID): 812 nM
Plasma concentration, mean ([6]; Visit 4 (Day 28), 10 mg BID): 1023 nM
concentration at 4 h ([6]; Visit 4 (Day 28), 10 mg BID): 976 nM
KM for CYP2C9 reactions (formation) (CYP2C9): ~3 µM
IC50 (Cav3.3; [14]): 2.3 nM
IC50 (Cav3.3; [15]): 86 nM
State dependence (Cav3.3): 37 fold
fraction unbound [7, 16]: 0.004
fraction unbound ([7]; rats, read-out: free fraction): 0.004
Tmax ([8]; female): 8 h
Tmax ([8]; male): 8 h
Ratio of AUC24 (metabolite/CX-8998) (Pharmacokinetics in rats; Female): 0.52
Ratio of AUC24 (metabolite/CX-8998) (Pharmacokinetics in rats; Male): 0.63
AUC (Pharmacokinetics in rats; female): 8.7 µM·h
AUC (Pharmacokinetics in rats; male): 3.7 µM·h
AUC ([9]; female, 10 mg/kg): 38.6 µM·h
AUC ([9]; female, 30 mg/kg): 103 µM·h
AUC ([9]; female, 100 mg/kg/day): 431 µM·h
AUC ([9]; male, 10 mg/kg): 54.9 µM·h
AUC ([9]; male, 30 mg/kg): 121 µM·h
AUC ([9]; male, 100 mg/kg/day): 1770 µM·h

C[C@@H](NC(=O)Cc1ccc(C(C)(C)O)cc1)c1ccc(OCC(F)(F)F)cn1 [M02]
Inhibition of BCRP-mediated transport ([1]; up to 30 μM): did not inhibit
half-life ([2]; 2 mg): 900 min
AUC ([2]; 2 mg, AUC24, M02, Day 7, CX-8998 2 mg once daily): 0.93 µM·h
Cmax ([2]; 2 mg, M02, Day 7, CX-8998 2 mg once daily): 54 nM
half-life ([2]; 4 mg): 924 min
AUC ([2]; 4 mg, AUC24, M02, Day 7, CX-8998 4 mg once daily): 1.86 µM·h
Cmax ([2]; 4 mg, M02, Day 7, CX-8998 4 mg once daily): 106 nM
half-life ([2]; 8 mg): 732 min
AUC ([2]; 8 mg, AUC24, M02, Day 7, CX-8998 8 mg once daily): 3.54 µM·h
Cmax ([2]; 8 mg, M02, Day 7, CX-8998 8 mg once daily): 219 nM
half-life ([2]; 12 mg): 870 min
AUC ([2]; 12 mg, AUC24, M02, Day 7, CX-8998 12 mg once daily): 4.55 µM·h
Cmax ([2]; 12 mg, M02, Day 7, CX-8998 12 mg once daily): 287 nM
half-life ([2]; 18 mg): 768 min
AUC ([2]; 18 mg, AUC24, M02, Day 7, CX-8998 18 mg once daily): 7.97 µM·h
Cmax ([2]; 18 mg, M02, Day 7, CX-8998 18 mg once daily): 481 nM
half-life ([2]; male, oral): 732 to 924 min
AUC(0-t) (clinical): 3.67 µM·h
Cmax (clinical): 122 nM
AUC (in vivo [4]): 31.7 µM·h
Cmax (in vivo [4]): 5.4 µM
Kp at 2 h [5, 13]: 0.32
P-glycoprotein substrate or inhibitor activity (P-glycoprotein): showed increased efflux in the rat and monkey assays
CYP2B6 induction (CYP2B6): mild to moderate inducers
Plasma concentration, mean ([6]; Visit 2 (Day 8), 4 mg BID): 168 nM
Plasma concentration, mean ([6]; Visit 3 (Day 15), 8 mg BID): 325 nM
Plasma concentration, mean ([6]; Visit 4 (Day 28), 10 mg BID): 406 nM
concentration at 4 h ([6]; Visit 4 (Day 28), 10 mg BID): 438 nM
KM for CYP2C9 reactions (formation) (CYP2C9): ~3 µM
IC50 (Cav3.3; [14]): 17 nM
IC50 (Cav3.3; [15]): 2840 nM
State dependence (Cav3.3): 166 fold
fraction unbound [7, 16]: 0.29
fraction unbound ([7]; rats, read-out: free fraction): 0.29
Tmax ([8]; female): 8 h
Tmax ([8]; male): 8 h
Off-target effects (≥50% inhibition or stimulation) [10]: No significant results
AUC (Pharmacokinetics in rats; female): 31 µM·h
AUC (Pharmacokinetics in rats; male): 10 µM·h
AUC ([9]; female, 10 mg/kg): 103 µM·h
AUC ([9]; female, 30 mg/kg): 209 µM·h
AUC ([9]; female, 100 mg/kg/day): 339 µM·h
AUC ([9]; male, 10 mg/kg): 149 µM·h
AUC ([9]; male, 30 mg/kg): 213 µM·h
AUC ([9]; male, 100 mg/kg/day): 1800 µM·h
